Source: US9073940B2, “Tricyclic pyrazol amine derivatives” (MERCK SERONO SA, priority 2009, dated 2015)
Where a name gives a salt, the structure may show the parent alone.

Columns and labels:
[1] = tested on: 4 PI3K isoforms (Human recombinant GST-PI3K); assay: PI3K scintillation proximity assay, best IC50 obtained with the four isoforms (alpha, beta, delta, gamma); assay type: biochemical; settings: best IC50 obtained with the four isoforms of PI3K; read-out: Best potency measured on the 4 PI3K isoforms
[2] = tested on: AKT phosphorylation (p-AKT Ser 473) in Ramos B-lymphocyte cell line; assay: Mechanistic on-target cell assay: flow cytometry of AKT phosphorylation after anti-human IGM stimulation; assay type: cell-based
Method: Mechanistic-On Target Cell Assay
The reaction was stopped by fixing the cells with Paraformaldehyde 4% (final) for 10 minutes at room temperature. Cells were washed once with Phosphate Buffer Saline (PBS), permabilized in PBS-Triton X-100 0.2% for 15 minutes at room temperature washed twice with PBS and once with PBS-4% serum. […] Cells were washed twice in PBS and resuspended in PBS. The cell suspension was passed on a FC500 flow cytometer (Beckman Coulter), gating on the IGM positive cells and measuring the AKT phosphorylation.

Row | Molecule | IC50 [1] [nM] | IC50 [2] [nM]
1 | 3-(morpholin-4-ylcarbonyl)-1-[1-(2-morpholin-4-ylethyl)piperidin-3-yl]-1,4-dihydrothiochromeno[4,3-c]pyrazole 5,5-dioxide [Example 345] | 16 | 68
2 | COCCN1CCC[C@H](n2nc(C(=O)N3CCOCC3)c3c2-c2ccccc2S(=O)(=O)C3)C1 (single isomer, unassigned) [Example 346, 1-[1-(2-methoxyethyl)piperidin-3-yl]-3-(morpholin-4-ylcarbonyl)-1,4-dihydrothiochromeno[4,3-c]pyrazole 5,5-dioxide] | 40 | 128
3 | O=C(c1nn([C@H]2CCCN(CCN3CCOCC3)C2)c2c1CS(=O)(=O)c1c(F)cccc1-2)N1CCOCC1 (single isomer, unassigned) [Example 350, 6-fluoro-3-(morpholin-4-ylcarbonyl)-1-[1-(2-morpholin-4-ylethyl)piperidin-3-yl]-1,4-dihydrothiochromeno[4,3-c]pyrazole 5,5-dioxide hydrochloride salt] | 16 | 40
4 | O=C(c1nn([C@H]2CCN(C3CCOCC3)C2)c2c1CS(=O)(=O)c1c(F)cccc1-2)N1CCOCC1 (single isomer, unassigned) [Example 355, 6-fluoro-3-(morpholin-4-ylcarbonyl)-1-[1-(tetrahydro-2H-pyran-4-yl)pyrrolidin-3-yl]-1,4-dihydrothiochromeno[4,3-c]pyrazole 5,5-dioxide hydrochloride salt] | 52 | 94
5 | O=C(c1nn([C@@H]2CCCN(C3CCOCC3)CC2)c2c1CS(=O)(=O)c1ccccc1-2)N1CCOCC1 (single isomer, unassigned) [Example 400] | 104 | 888
6 | O=C(c1nn([C@H]2CCCN(C3CCOCC3)CC2)c2c1CS(=O)(=O)c1ccccc1-2)N1CCOCC1 (single isomer, unassigned) [Example 401] | 340 | 3630
7 | O=C(c1nn([C@@H]2CCN(C3CCOCC3)C2)c2c1CS(=O)(=O)c1ccccc1-2)N1CCOCC1 (single isomer, unassigned) [Example 403] | 45 | 214
8 | COc1cccc2c1S(=O)(=O)Cc1c(C(=O)N3CCOCC3)nn(-c3ccccc3)c1-2 [Example 1, 6-methoxy-3-(morpholin-4-ylcarbonyl)-1-phenyl-1,4-dihydrothiochromeno[4,3-c]pyrazole 5,5-dioxide] | 459 | 570
9 | Cc1ccc(-n2nc(C(=O)N3CCOCC3)c3c2-c2ccccc2S(=O)(=O)C3)cc1 [Example 7, 1-(4-methylphenyl)-3-(morpholin-4-ylcarbonyl)-1,4-dihydrothiochromeno[4,3-c]pyrazole 5,5-dioxide] | 690 | 976
10 | O=C(c1nn(C2CCCCC2)c2c1CS(=O)(=O)c1ccccc1-2)N1CCOCC1 [Example 12, 1-cyclohexyl-3-(morpholin-4-ylcarbonyl)-1,4-dihydrothiochromeno[4,3-c]pyrazole 5,5-dioxide] | 136 | 167
11 | O=C(c1nn(-c2ccccc2)c2c1CS(=O)(=O)c1c(F)cccc1-2)N1CCOCC1 [Example 15, 6-fluoro-3-(morpholin-4-ylcarbonyl)-1-phenyl-1,4-dihydrothiochromeno[4,3-c]pyrazole 5,5-dioxide] | 424 | 364
12 | CC(C)(C)OC(=O)N1CCC(Cn2nc(C(=O)N3CCOCC3)c3c2-c2ccccc2S(=O)(=O)C3)CC1 [Example 43, tert-butyl 4-{[3-(morpholin-4-ylcarbonyl)-5,5-dioxidothiochromeno[4,3-c]pyrazol-1(4H)-yl]methyl}piperidine-1-carboxylate] | – | 534
13 | O=C(c1nn(-c2ccc(CN3CCOCC3)cc2)c2c1CS(=O)(=O)c1ccccc1-2)N1CCOCC1 [Example 137] | – | 300
14 | O=C(c1nn([C@H]2CCCN(CCF)C2)c2c1CS(=O)(=O)c1ncccc1-2)N1CCOCC1 [Example 380] | – | 320

Other lines, results leading:

Row | IC50 [1] [nM] | IC50 [2] [nM] | Molecule
15 | 14 | 45 | O=C(c1nn([C@H]2CCCN(CCN3CCOCC3)C2)c2c1CS(=O)(=O)c1cc(F)ccc1-2)N1CCOCC1 (stereo in doubt) [Example 472, 7-fluoro-3-(morpholin-4-ylcarbonyl)-1-[1-(2-morpholin-4-ylethyl)piperidin-3-yl]-1,4-dihydrothiochromeno[4,3-c]pyrazole 5,5-dioxide]
16 | 164 | – | COCCNCc1ccc(-n2nc(C(=O)N3CCOCC3)c3c2-c2ccccc2S(=O)(=O)C3)cc1 [Example 431, 2-Methoxy-N-{4-[3-(morpholin-4-ylcarbonyl)-5,5-dioxidothiochromeno[4,3-c]pyrazol-1(4H)-yl]benzyl}ethanamine]
17 | 105 | – | CC1CN(Cc2ccc(-n3nc(C(=O)N4CCOCC4)c4c3-c3ccccc3S(=O)(=O)C4)cc2)CCO1 (stereo not drawn) [Example 432, 1-{4-[(2-Methylmorpholin-4-yl)methyl]phenyl}-3-(morpholin-4-ylcarbonyl)-1,4-dihydrothiochromeno[4,3-c]pyrazole 5,5-dioxide]
18 | 57 | – | CC1CN(Cc2ccc(-n3nc(C(=O)N4CCOCC4)c4c3-c3ccccc3S(=O)(=O)C4)cc2)CC(C)O1 (stereo not drawn) [Example 435, 1-{4-[(2,6-Dimethylmorpholin-4-yl)methyl]phenyl}-3-(morpholin-4-ylcarbonyl)-1,4-dihydrothiochromeno[4,3-c]pyrazole 5,5-dioxide]
19 | 107 | – | O=C(c1nn(-c2ccc(CNC3CCOCC3)cc2)c2c1CS(=O)(=O)c1ccccc1-2)N1CCOCC1 [Example 436, N-{4-[3-(Morpholin-4-ylcarbonyl)-5,5-dioxidothiochromeno[4,3-c]pyrazol-1 (4H)-yl]benzyl}tetrahydro-2H-pyran-4-amine]
20 | 120 | – | CC1(C)CN(Cc2ccc(-n3nc(C(=O)N4CCOCC4)c4c3-c3ccccc3S(=O)(=O)C4)cc2)CCO1 [Example 437, 1-{4-[(2,2-Dimethylmorpholin-4-yl)methyl]phenyl}-3-(morpholin-4-ylcarbonyl)-1,4-dihydrothiochromeno[4,3-c]pyrazole 5,5-dioxide]
21 | 226 | – | CNCc1ccc(-n2nc(C(=O)N3CCOCC3)c3c2-c2ccccc2S(=O)(=O)C3)cc1 [Example 449, N-Methyl-1-{4-[3-(morpholin-4-ylcarbonyl)-5,5-dioxidothiochromeno[4,3-c]pyrazol-1 (4H)-yl]phenyl}methanamine]
22 | 28 | – | COc1ccc2c(c1)-c1c(c(C(=O)N3CCOCC3)nn1C1CCCN(CCN3CCOCC3)C1)CS2(=O)=O (stereo not drawn) [Example 453, 8-methoxy-3-(morpholin-4-ylcarbonyl)-1-[1-(2-morpholin-4-ylethyl)piperidin-3-yl]-1,4-dihydrothiochromeno[4,3-c]pyrazole 5,5-dioxide]
23 | 224 | – | O=C(c1nn(-c2ccc(CNC3CCCOC3)cc2)c2c1CS(=O)(=O)c1ccccc1-2)N1CCOCC1 (stereo not drawn) [Example 455, N-{4-[3-(Morpholin-4-ylcarbonyl)-5,5-dioxidothiochromeno[4,3-c]pyrazol-1(4H)-yl]benzyl}tetrahydro-2H-pyran-3-amine]
24 | 156 | – | O=C(c1nn(-c2ccc(CNC3CCOC3)cc2)c2c1CS(=O)(=O)c1ccccc1-2)N1CCOCC1 (stereo not drawn) [Example 456, N-{4-[3-(Morpholin-4-ylcarbonyl)-5,5-dioxidothiochromeno[4,3-c]pyrazol-1(4H)-yl]benzyl}tetrahydrofuran-3-amine]
25 | 584 | – | CC(C)(c1ccc(-n2nc(C(=O)N3CCOCC3)c3c2-c2ccccc2S(=O)(=O)C3)cc1)N1CCOCC1 [Example 457, 1-[4-(1-Methyl-1-morpholin-4-ylethyl)phenyl]-3-(morpholin-4-ylcarbonyl)-1,4-dihydrothiochromeno[4,3-c]pyrazole 5,5-dioxide]
26 | 159 | – | CN(C)CC(C)(C)c1ccc(-n2nc(C(=O)N3CCOCC3)c3c2-c2ccccc2S(=O)(=O)C3)cc1 [Example 458, N,N,2-Trimethyl-2-{4-[3-(morpholin-4-ylcarbonyl)-5,5-dioxidothiochromeno[4,3-c]pyrazol-1(4H)-yl]phenyl}propan-1-amine hydrochloride]
27 | 341 | – | CC(C)(CN1CCOCC1)c1ccc(-n2nc(C(=O)N3CCOCC3)c3c2-c2ccccc2S(=O)(=O)C3)cc1 [Example 461, 1-[4-(1,1-Dimethyl-2-morpholin-4-ylethyl)phenyl]-3-(morpholin-4-ylcarbonyl)-1,4-dihydrothiochromeno[4,3-c]pyrazole 5,5-dioxide]
28 | 995 | – | O=C(c1nn(-c2ccc(C3(CN4CCOCC4)CC3)cc2)c2c1CS(=O)(=O)c1ccccc1-2)N1CCOCC1 [Example 462, 3-(Morpholin-4-ylcarbonyl)-1-{4-[1-(morpholin-4-ylmethyl)cyclopropyl]phenyl}-1,4-dihydrothiochromeno[4,3-c]pyrazole 5,5-dioxide]
29 | 25 | – | O=C(c1nn([C@H]2CCCN(C3CCCNC3)C2)c2c1CS(=O)(=O)c1ccccc1-2)N1CCOCC1 (stereo partly drawn) [Example 469]
30 | 10500 | – | O=C(c1nn(C2CCCNC2)c2c1CS(=O)(=O)c1cc(OC(F)(F)F)ccc1-2)N1CCOCC1 (stereo not drawn) [Example 481, 7-(Trifluoromethoxy)-3-(morpholin-4-ylcarbonyl)-1-piperidin-3-yl-1,4-dihydrothiochromeno[4,3-c]pyrazole 5,5-dioxide]
31 | 477 | – | O=C(c1nn(-c2ccccc2)c2c1CS(=O)(=O)c1nccn1-2)N1CCOCC1 [Example 485]
32 | 3460 | – | CN1c2c(C(=O)N3CCOCC3)nn(-c3ccccc3)c2-c2ccccc2S1(=O)=O [Example 488, 4-Methyl-3-(morpholin-4-ylcarbonyl)-1-phenyl-1,4-dihydropyrazolo[4,3-c][1,2]benzothiazine 5,5-dioxide]
33 | 5500 | – | O=C(c1nn(-c2ccccc2)c2c1NS(=O)(=O)c1ccccc1-2)N1CCOCC1 [Example 489, 3-(Morpholin-4-ylcarbonyl)-1-phenyl-1,4-dihydropyrazolo[4,3-c][1,2]benzothiazine 5,5-dioxide]
